Assay results from patent US10022356B2, “Compounds for treatment of cancer” (UNIVERSITY OF TENNESSEE RESEARCH FOUNDATION, priority 2013, dated 2018).
≈ marks a conversion by molar mass, not a printed value. Like-named read-outs stand apart in the source and are kept apart here.

What was measured:
[1] = Aqueous solubility (Multiscreen Solubility Filter Plate, LC-MS/MS); type: physicochemical
Procedure: The solubility of drugs was determined by Multiscreen Solubility Filter Plate (Millipore Corporate, Billerica, Mass.) coupled with LC-MS/MS.

[2] = Pharmacokinetic study in Sprague-Dawley rats; conditions: rat
[3] = system: B16-F1 melanoma cells; experiment: B16-F1 melanoma colony formation assay in soft agar; type: cell-based, mouse; conditions: 14 days; tested 20, 100, 500 nM
Procedure: B16-F1 melanoma cells were plated at a colony-forming density (2000 cells per well on six-well plates) on top of 0.8% base agar. Cells were grown in 0.4% agar together with DMEM medium supplemented with fetal bovine serum and an antibiotic-antimycotic solution at 37° C. in an atmosphere of 95% air and 5% CO2. […] Compounds were added to the media from 1 mM DMSO stock solutions, and a corresponding dilution of DMSO was used as control. Cells were grown for 14 days. Plates were photographed, and the number of colonies was measured by Artek 880 Automated Colony Counter (Artek Systems Corporation, Farmingdale, N.Y.).

[4] = system: metastasis of melanoma to the lungs; experiment: Melanoma lung metastasis model in mice; type: in vivo; conditions: i.p. injection 5 days per week for 2 weeks (FIG. 28)
Text: Panel A: Representative photos of lungs with melanoma nodules (black dots, n=8 per group). Treatment was i.p. injection 5 days per week for 2 weeks. Panel B: Number of melanoma nodules on each lung. […] Panel C: Mouse body weight changes during the experiment. Points: means; bars: SD. Control: vehicle solution only.

[5] = in vitro; conditions: human, liver microsomes, pH 7.4
[6] = system: three melanoma cell lines and four human prostate cancer cell lines; experiment: Antiproliferative activity quoted in the SAR text (average of all seven cell lines); type: cell-based
[7] = system: LNCaP; experiment: SRB cytotoxicity assay, LNCaP; type: cell-based, human; conditions: Reversed aryl benzoyl imidazole (RABI), Tables 10A/10B; read-out: LNCaP (nM), inhibitory effects
[8] = system: Du 145; experiment: SRB cytotoxicity assay, Du 145; type: cell-based, human; conditions: RABI, Tables 10A/10B; read-out: DU145 (nM), inhibitory effects
[9] = system: PPC-1; experiment: SRB cytotoxicity assay, PPC-1; type: cell-based, human; conditions: RABI, Tables 10A/10B; read-out: PPC1 (nM), inhibitory effects
[10] = system: PC-3; experiment: SRB cytotoxicity assay, PC-3; conditions: read-out: PC3 (nM), inhibitory effects; RABI, Tables 10A/10B
[11] = system: B16-F1 melanoma; experiment: B16-F1 melanoma tumors in C57/BL mice; type: in vivo; conditions: 60 mg/kg; after 13 days of treatment; C57BL/6 mice
Procedure: C57BL/6 mice bearing B16-F1 melanoma allograft (n=5 per group). Each mouse received 0.5×10^6 cells by s.c. injection into the flank. 30 μL i.p. daily treatments were started when tumor size reached ˜100 mm^3. […] Control, vehicle solution only; points, means; bars, SD. DTIC, (5-(3,3,-dimethyl-1-triazenyl)-imidazole-4-carboxamide, dacarbazine.
Female C57/BL mice, age 4-6 weeks, were purchased from Harlan Laboratories (Harlan Laboratories Inc., Indianapolis, Ind.). The animal housing met the Association for Assessment and Accreditation and Laboratory Animal Care specifications. All of the procedures were conducted in accordance with guidelines of our Institutional Animal Care and Use Committee.
The cell suspension (100 μL) was injected subcutaneously in the right dorsal flank of each mouse. When tumor size reached about 100-150 mm^3, about 7 days after cell inoculation, all mice bearing tumors were divided into control and treatment groups based on tumor size (n=5 per group). Each group had similar average tumor size. Mice in control groups (negative control) were injected intraperitoneally with 50 μL vehicle solution only or DTIC at 60 mg/kg (positive control) once daily. Tumor volume was measured every 2 days with a traceable electronic digital caliper (Fisher Scientific, Inc., Pittsburgh, Pa.) and calculated using the formula a×b^2×0.5, where a and b represented the larger and smaller diameters, respectively. Tumor volume was expressed in cubic millimeters. Data were expressed as mean±SE for each group and plotted as a function of time. […] Animal activity and average body weight of each group were monitored during the entire experiment period to assess compound toxicity. At the end of treatment, all mice were euthanized by CO2 followed by cervical dislocation, and tumors were harvested for further studies.

[12] = system: A375 human melanoma xenograft; experiment: A375 human melanoma xenograft in SHO nude mice; type: in vivo; conditions: 60 mg/kg; after 31 days of treatment
Procedure: FIG. 19 depicts in vivo study of ABI compounds. […] C57BL/6 mice bearing B16-F1 melanoma allograft (n=5 per group). Each mouse received 0.5×10^6 cells by s.c. injection into the flank. 30 μL i.p. daily treatments were started when tumor size reached ˜100 mm^3. […] SHO nude mice bearing an A375 human melanoma xenograft (n=5 per group). Each mouse received 2.5×10^6 cells by s.c. injection into the flank. 30 μL i.p. daily treatments were started when the tumor size reached ˜150 mm^3. Control, vehicle solution only; points, means; bars, SD. DTIC, (5-(3,3,-dimethyl-1-triazenyl)-imidazole-4-carboxamide, dacarbazine.
Average body weight of all groups increased slightly throughout the experiment period.

[13] = system: A375RF21; experiment: In vitro combination assay (combination index) on A375RF21; type: cell-based, human; conditions: Treatment + Vemurafenib
Text: (§2) Cell proliferation viability was investigated using MTS or SRB assay as described previously. An in vitro study of the combination of vemurafenib and the tubulin inhibitors was designed and conducted using CalcuSyn software (Biosoft, Ferguson, Mo.) with five duplicates of each set of treatment. Drug concentrations were selected based on the IC50 value of each drug tested from a pilot study.

[14] = system: A375RF21; experiment: Annexin V/propidium iodide apoptosis detection in A375RF21 cells; type: cell-based, human; conditions: 48 hours incubation
[15] = system: PC-3/TxR tumors; conditions: for Tumor size (mm^2) End / Tumor size (mm^2) Start: PC-3/TxR xenograft; for Tumor size (mm^2) End: day 1 and 9, end point day 19; for Tumor size (mm^2) Start: day 1 and 9, start
[16] = Brain penetration (brain and plasma concentrations) in nude mice; conditions: docetaxel IP 10 mpk, 17ya PO 20 mpk, 55 PO 20 mpk
[17] = system: A375; experiment: In vitro combination assay (combination index, Chou-Talalay, MTS) on A375; type: cell-based, human; conditions: +Vemurafenib; A375 cell line (Tables 3, 4)
Text: as §2

[18] = system: A375RF21; experiment: Cell cycle analysis (flow cytometry) in A375RF21 cells; type: cell-based, human; conditions: resistant A375RF21 cell line
Procedure: (§1) Flow cytometry analysis was performed as described before (Wang Z, Chen J, Wang J, et al. “Novel tubulin polymerization inhibitors overcome multidrug resistance and reduce melanoma lung metastasis.” Pharm. Res. (2012) 29: 3040-3052). To determine cell cycle distributions in the G2 and M phases (FIG. 23), cells were harvested with trypsin, stained using antiphospho-histone H3-AlexaFluor® 488 antibody on ice for one hour in the dark, followed by stained using PI/RNase solution for 30 minutes at room temperature in the dark per the manufacturer's instructions (#FCCH025103, EMD Millipore Corporation, Ballerica, Mass.). Data were further processed and graphs were prepared using the Modfit 2.0 program (Verity Software House, Topsham, Me.).

[19] = system: A375; experiment: Cell cycle analysis (flow cytometry) in parental A375 cells; type: cell-based, human
Procedure: as §1

[20] = system: A375RF21 xenograft; experiment: A375RF21 tumor xenograft in nude mice; type: in vivo
Procedure: Seven to eight week old male nude mice were purchased from Charles River Laboratories International, Inc. (Wilmington, Mass.). A375RF21 cells were suspended in ice-cold phenol red-free and FBS-free DMEM medium without FBS and mixed with high concentration Matrigel (BD Biosciences, San Joes, Calif.) at ratio of 1:1 right before use. 100 μL of this mixture containing 3×10^6 cells were injected subcutaneously (s.c.) to the left-side dorsal flank of each mouse. One week after the inoculation, the mice were randomized into four groups (n=7 for the initial low dose and n=5 for subsequent high dose drug combination) and the treatments started. […] Vehicle control group was i.p. injected with same volume (100 μL) of PEG300 at the same dosing frequency. At the end of the experiments, mice were euthanized and tumor tissue were isolated, weighted and then fixed in 10% buffered formalin phosphate solution.
Tumor volume and body weight of each mouse were evaluated three times a week.

[21] = system: HL60 tumors; experiment: HL60 leukemia xenograft in nude mice; type: in vivo; conditions: vincristine 1 mg/kg intraperitoneal injection once a week
Procedure: The dosing schedule was once a week for two weeks. Vincristine (1 mg/mL) was administrated via intraperitoneal injection once a week.

[22] = Pharmacokinetic study in ICR mice; conditions: mouse; for MousePK_IV10mgk_Cl / MousePK_IV10mgk_V: IV 10 mg/kg
Procedure: All compounds (10 mg/kg) were dissolved in DMSO/PEG300 (1/9) and administered by a single intravenously (i.v.) injection (50 μL) into the tail vein.

[23] = vemurafenib 30 mg/kg, 12da 15 mg/kg, n=5

In the case of `COc1cc(C(=O)c2csc(-c3ccccc3)n2)cc(OC)c1OC` [1 h, reference compound], the Aqueous solubility ([1]; PBS pH 7.4) is reported as “(1.1) μg/mL” and the oral bioavailability [2] is reported as 3.3%.
For `COc1ccc(-c2nc(C(=O)c3ccc(F)cc3)c[nH]2)cc1` [12cb, (4-fluorophenyl)(2-(4-methoxyphenyl)-1H-imidazol-4-yl)methanone], the “concentration showing effective inhibition of B16-F1 colony formation” value [3] was 20 nM and the “metastasis of melanoma to the lungs” value [4] was “inhibition”.
For `COc1cc(C(=O)c2c[nH]c(-c3ccc(Cl)cc3)n2)cc(OC)c1OC` [12fa, (2-(4-chlorophenyl)-1H-imidazol-4-yl)(3,4,5-trimethoxyphenyl)methanone], the solubility at […] ([1]; phosphate buffered saline, aqueous buffer, kinetic from dmso stock, PBS pH 7.4) was 0.012 mg/mL (≈ 32.2 µM) and the half-life at 0.5 μM [5] was 44 min.
With `O=C(c1ccc(F)cc1)c1c[nH]c(-c2ccc(OCc3ccccc3)cc2)n1` [12jb, (2-(4-(benzyloxy)phenyl)-1H-imidazol-4-yl)(4-fluorophenyl)methanone] the “increase in activity compared with the para-hydroxy compound 12kb” value [6] was 440 fold.
In the case of `O=C(c1ccc(Br)cc1)c1nc(-c2ccc(Br)cc2)c[nH]1` [70t], the IC50 [7] is reported as 16900 nM, the IC50 [8] is reported as 25500 nM and the IC50 [9] is reported as 13200 nM. It also gave an IC50 [10] of 18900 nM.
For `COc1ccc(C(=O)c2nc(-c3cc(OC)c(OC)c(OC)c3)c[nH]2)cc1` [70y], the IC50 [7] was 708 nM, the IC50 [9] was 5680 nM and the IC50 [10] was 10400 nM.
In the case of `CN(C)/N=N/c1[nH]cnc1C(N)=O` [DTIC, reference compound], the “melanoma tumor growth inhibition (TGI value)” value [11] is reported as 51% and the “melanoma tumor growth inhibition (TGI value)” value [12] is reported as 52%.
With `CC(=O)O[C@@]12CO[C@@H]1C[C@H](O)[C@@]1(C)C(=O)[C@H](O)C3=C(C)[C@@H](OC(=O)[C@H](O)[C@@H](NC(=O)OC(C)(C)C)c4ccccc4)C[C@@](O)([C@@H](OC(=O)c4ccccc4)[C@H]21)C3(C)C` [Docetaxel] the “CI ED75” value [13] was 0.80, the “CI ED90” value [13] was 0.90 and the “counted cell apoptosis or death (percentage sum of Q1, Q2 and Q4)” value [14] was 6.4±3.0%. For the same compound, the “Tumor size (mm^2) End” value ([15]; IV 10mpk) was 1774 ± 183 mm^2, the “Tumor size (mm^2) Start” value ([15]; IV 10mpk) was 143 ± 20 mm^2 and the “Tumor size (mm^2) End” value ([15]; IV 20mpk) was 999 ± 905 mm^2. For the same compound, the “Tumor size (mm^2) Start” value ([15]; IV 20mpk) was 170 ± 80 mm^2, the “TGI (%)” value ([15]; mouse, in vivo, iv, 10 mg/kg) was 14% and the “Brain (ng/mL), 4 hr” value [16] was 20 ± 9 ng/mL. The “Plasma (ng/mL), 1 hr” value [16] was 768 ± 92 ng/mL, the “Plasma (ng/mL), 4 hr” value [16] was 345 ± 94 ng/mL and the “Brain (ng/mL), 1 hr” value ([16]; mean ± SD, 3 nude mice) was 33 ± 14 ng/mL.
For `COc1cccc2c1C(=O)c1c(O)c3c(c(O)c1C2=O)C[C@@](O)(C(=O)CO)C[C@@H]3O[C@H]1C[C@H](N)[C@H](O)[C@H](C)O1` [Doxorubicin], the “CI value EC75” value [17] was 11.6.
With `NC1(c2ccc(-c3nc4ccn5c(=O)[nH]nc5c4cc3-c3ccccc3)cc2)CCC1` [MK2206] the “CI value EC75” value [17] was 0.67.
With `CCN(CC)CCNC(=O)c1c(C)[nH]c(/C=C2\C(=O)Nc3ccc(F)cc32)c1C` [Sunitinib] the “CI ED75” value [13] was 0.91 and the “CI ED90” value [13] was 0.93.
With `CC(=O)Nc1cccc(-n2c(=O)n(C3CC3)c(=O)c3c(Nc4ccc(I)cc4F)n(C)c(=O)c(C)c32)c1` [Trametinib] the “CI ED75” value [13] was 0.90 and the “CI ED90” value [13] was 0.90.
For `CCCS(=O)(=O)Nc1ccc(F)c(C(=O)c2c[nH]c3ncc(-c4ccc(Cl)cc4)cc23)c1F` [Vemurafenib, reference compound], the “concentration of vemurafenib to produce G0/G1 cell cycle arrest” value [18] was no less than 30 µM, the “concentration of vemurafenib to produce G0/G1 cell cycle arrest” value [19] was “less than 1 μM” and the “counted cell apoptosis or death (percentage sum of Q1, Q2 and Q4)” value [14] was 11.9±3.5%. The “TGI (%)” value ([20]; 12da 10 mg/kg, vemurafenib 20 mg/kg, i.p. once per day 5 days per week, after 3 weeks of treatment, n=7) was 22.65 ± 8.31%, the “TGI (%)” value ([20]; 12da 10 mg/kg, vemurafenib 20 mg/kg, i.p. once per day 5 days per week, after 3 weeks of treatment, n=7, listed as vemurafenib) was 22.65% and the “Tumor weight (gram)” value ([20]; 12da 10 mg/kg, vemurafenib 20 mg/kg, after 3 weeks of treatment, n=7) was 2.05 ± 0.14 gram. The “TGI (%)” value [20, 23] was 28.10 ± 4.81%, the “Tumor weight (gram)” value [20, 23] was 1.05 ± 0.21 gram and the “TGI (%)” value ([20]; vemurafenib 30 mg/kg, 12da 15 mg/kg, n=5, listed as vemurafenib) was 28.10%.
With `CC[C@]1(O)C[C@@H]2CN(CCc3c([nH]c4ccccc34)[C@@](C(=O)OC)(c3cc4c(cc3OC)N(C)[C@H]3[C@@](O)(C(=O)OC)[C@H](OC(C)=O)[C@]5(CC)C=CCN6CC[C@]43[C@@H]65)C2)C1` [Vinblastine] the “CI value EC75” value [17] was 0.78.
In the case of `CC[C@]1(O)C[C@H]2CN(CCc3c([nH]c4ccccc34)[C@@](C(=O)OC)(c3cc4c(cc3OC)N(C=O)[C@H]3[C@@](O)(C(=O)OC)[C@H](OC(C)=O)[C@]5(CC)C=CCN6CC[C@]43[C@@H]65)C2)C1` [Vincristine], the “tumor growth inhibition (TGI)” value [21] is reported as 84%.
`COc1cc(C(=O)c2c[nH]c(-c3ccc(Cl)cc3)n2)cc(OC)c1OC` [drawing 51] gave a Solubility ([1]; aqueous) of 0.012 mg/mL (≈ 32.2 µM), a MousePK_IV10mgk_Cl [22] of 3.66 L/h/kg and a MousePK_IV10mgk_V [22] of 4 L/kg. For the same compound, the MousePK_PO20mgk_AUC ([22]; PO 20 mg/kg) was 201 µg·min/mL, the MousePK_PO20mgk_Cmax ([22]; PO 20 mg/kg) was 2592 ng/mL and the RatPK_IV5mgk_Cl ([2]; IV 5 mg/kg) was 0.96 L/h/kg. For the same compound, the RatPK_IV5mgk_V ([2]; IV 5 mg/kg) was 1.9 L/kg, the RatPK_PO10mgk_AUC ([2]; PO 10 mg/kg) was 218 µg·min/mL and the RatPK_PO10mgk_Cmax ([2]; PO 10 mg/kg) was 1109 ng/mL.
For `COc1cc(C(=O)c2csc(-c3ccccc3)n2)cc(OC)c1OC` [drawing 53], the half-life at 0.5 μM [5] was 17 min, the MousePK_IV10mgk_Cl [22] was 7.8 L/h/kg and the MousePK_IV10mgk_V [22] was 4.9 L/kg. The RatPK_IV5mgk_V ([2]; IV, 2.5mpk) was 4.9 (2.5mpk) L/kg, the RatPK_PO10mgk_AUC ([2]; PO 10 mg/kg) was 37 µg·min/mL and the RatPK_Bioavailability ([2]; oral) was 3.3 % F.
